The GI50 is the concentration at which growth is held to half of that of the control.

Assay in all cases: Cell growth inhibition, SRB assay
Holding throughout (type): cell-based, human
Holding throughout (conditions): Homo sapiens
For orientation: Sulforhodamine B stains cellular protein and so reports cell mass.

Experiment [1] deals with SW626. How it is done:
(§1) Human cancer cells (MCF-7, H358, H460, HCT116 p53^+/+, HCT116 p53^−/−, A172, PC-3, DU-145 and SW626) were maintained in DMEM medium containing 10% Fetal Bovine Serum (FBS) (Invitrogen, Burlington, ON, Canada) and normal cells HMEC, 184A1, NHBE and PrEC were cultured in MEGM, MEGM plus transferring and cholera toxin, BEGM and PrEGM supplemented with various growth factors (Cambrex, Charles city, IA, USA), respectively.
(§2) Compounds were dissolved in DMSO and further diluted in cell culture medium for the experiments performed. Cells were seeded into 96-well plates with 1,500-5,000 cells/well according to cell growth rate. After 24 h, DMEM medium containing 10% FBS were changed to DMEM containing 3% FBS for cancer cells and additional 3% FBS were added into the culture medium for normal cells. The compound was added into the cell culture at the indicated concentrations, and the final concentration of DMSO was adjusted to a final concentration of 0.1%. Cells were subjected to either normoxic condition (20% O2) for 6 days or hypoxic condition (0.2% O2) for 2 days and then transferred to normoxic condition for 4 days. Cell viability was assessed by Sulforhodamine B (SRB) assay at Day 6.
(§3) Sulforhodamine B (SRB) (Sigma, Oakville, ON, Canada) is a water-soluble dye that binds to the basic amino acids of the cellular proteins. Thus, colorimetric measurement of the bound dye provides an estimate of the total protein mass that is related to the cell number. The cells were fixed in situ by gently aspirating off the culture media and adding 50 ul of cold 10% trichloroacetic Acid (TCA) per well and incubated at 4° C. for 30-60 min. The plates were washed five times with water and allowed to air dry for 5 min. 50 ul of 0.4% (w/v) SRB dissolved in 1% (v/v) acetic acid were added into each well, plates were then incubated at RT for 30 min for staining, washed four times with 1% acetic acid to remove any unbound dye and then allowed to air dry for 5 min. Stain was solubilized with 100 ul of 10 mM Tris pH 10.5 per well. Absorbance was read at 570 nm on a spectrophotometer. GI50 (compound concentration required for 50% of growth inhibition) was calculated using GraphPad Prism 4.0 software (GraphPad Software, Inc., San Diego, Calif., USA).
(§4) Cell viability of various cell lines treated with 3-carboxy-N,N,N-trimethyl-2-pentadecanamidopropan-1-aminium (“nPAC”) and compound of Examples S7, S63, S66, S90, S89, S67, S75 and S10 was also assessed in a manner as described above in Example 5.

For experiment [2], the system named is A172. How it is done:
as §1, §2, §3, §4

Experiment [3] concerns MCF-7. Here is the method:
as §1, §2, §3, §4

Experiment [4] has as its system PC-3. How it is done: as §1, §2, §3, §4
In experiment [5] the test system is H358. Here is the method:
as §1, §2, §3, §4

The mark [6] stands for this setting: Ovarian SW626, 3% FBS, read-out: GI50.
Setting [7] is: A 172, Brain A172, 3% FBS, read-out: GI50.
[8] abbreviates: MCF7, Breast MCF-7, 3% FBS, read-out: GI50.
The mark [9] stands for this setting: Prostate PC-3, 3% FBS, read-out: GI50.
[10] abbreviates: NCI-H358, Lung H358, 3% FBS, read-out: GI50.
[11] abbreviates: MCF7, 144 h, treated 6 days, SRB assay, mean±SD of 2 experiments (FIG. 1, 2), read-out: GI50 for MCF-7.
Setting [12] is: NCI-H358, 144 h, treated 6 days, SRB assay, mean±SD of 2 experiments (FIG. 1, 2), read-out: GI50 for H358.

Like-named read-outs stand apart in the source and are kept apart here.

`CCCCCCCCCCc1ccc(C(=O)N[C@H](CC(=O)[O-])C[N+](C)(C)C)cc1` [Example S66, (R)-3-(4-decylbenzamido)-4-(trimethylammonio)butanoate]: the GI50 in experiment [1] (setting [6]) amounted to 1500 nM; in experiment [2] (setting [7]), 1800 nM; in experiment [3] (setting [8]), 100 nM; in experiment [4] (setting [9]), 300 nM; in experiment [5] (setting [10]), 400 nM.

With `CCCCCCCCCCOc1ccc(C(=O)N[C@H](CC(=O)O)C[N+](C)(C)C)cc1` [Example S63, (R)-3-(4-(decyloxy)benzamido)-4-(trimethylammonio)butanoate 2,2,2-trifluoroacetate], the GI50 in experiment [1] (setting [6]) stood at 1200 nM; in experiment [2] (setting [7]), 900 nM; in experiment [3] (setting [8]), 400 nM; in experiment [4] (setting [9]) it was 300 nM; in experiment [5] (setting [10]), 400 nM.

For the compound `CCCCCCCCc1ccc(NC(=O)N[C@H](CC(=O)[O-])C[N+](C)(C)C)cc1` [Example S7, (R)-3-(3-(4-octylphenyl)ureido)-4-(trimethylammonio)butanoate], the GI50 in experiment [1] (SW626, SRB assay, mean±SD of 2 experiments (FIG. 2), read-out: GI50 for SW626) came out at 800 ± 700 nM; in experiment [1] (setting [6]) it was 800 nM; in experiment [2] (A 172, 144 h, A172, normoxic condition (20% O2) for 6 days, read-out: GI50 Normoxi), 3800 ± 500 nM; in experiment [2] (A 172, A172, hypoxic condition (0.2% O2) for 2 days, then normoxic for 4 days, read-out: GI50 Hypoxia), 1900 ± 800 nM; in experiment [2] (setting [7]) it was 3000 nM; in experiment [2] (A 172, SRB assay, mean±SD of 2 experiments (FIG. 2), read-out: GI50 for A172), 3800 ± 500 nM. The GI50 in experiment [3] (MCF7, 144 h, MCF-7, normoxic condition (20% O2) for 6 days, read-out: GI50 Normoxi) was found to be 5300 ± 1300 nM; in experiment [3] (setting [11]) it was 5000 ± 1300 nM; in experiment [3] (setting [8]), 4500 nM; in experiment [3] (MCF7, MCF-7, hypoxic condition (0.2% O2) for 2 days, then normoxic for 4 days, read-out: GI50 Hypoxia), 2500 ± 600 nM; in experiment [4] (PC-3, SRB assay, mean±SD of 2 experiments (FIG. 2), read-out: GI50 for PC-3), 800 ± 300 nM; in experiment [4] (setting [9]) it was 700 nM. Besides, the GI50 stood at 1000 ± 300 nM in experiment [5] (setting [12]) and 500 nM in experiment [5] (setting [10]).

Take `CCCCCCCCCCc1ccc(S(=O)(=O)N[C@H](CC(=O)O)C[N+](C)(C)C)cc1` [Example S75, (R)-3-carboxy-2-(4-decylphenylsulfonamido)-N,N,N-trimethylpropan-1-aminium 2,2,2-trifluoroacetate]: the GI50 in experiment [1] (setting [6]) came out at 4100 nM; in experiment [2] (setting [7]), 18000 nM; in experiment [3] (setting [8]), 11000 nM; in experiment [4] (setting [9]) it was 1500 nM; in experiment [5] (setting [10]) it was 2800 nM.

In the case of `CCCCCCCOc1ccc(NC(=O)N[C@H](CC(=O)[O-])C[N+](C)(C)C)cc1` [Example S10, (R)-3-(3-(4-(heptyloxy)phenyl)ureido)-4-(trimethylammonio)butanoate], the GI50 in experiment [1] (setting [6]) is 15000 nM; in experiment [2] (setting [7]) it was 40000 nM; in experiment [3] (setting [11]) it was 1000 ± 100 nM; in experiment [3] (setting [8]), 44000 nM; in experiment [4] (setting [9]), 5300 nM; in experiment [5] (setting [12]), 4100 ± 1300 nM. Besides, the GI50 in experiment [5] (setting [10]) was determined as 3400 nM.

Take `CCCCCCCCCCOc1cccc(C(=O)N[C@H](CC(=O)[O-])C[N+](C)(C)C)c1` [Example S67, (R)-3-(3-(decyloxy)benzamido)-4-(trimethylammonio)butanoate]: the GI50 in experiment [1] (setting [6]) is 2700 nM; in experiment [2] (setting [7]), 3600 nM; in experiment [3] (setting [8]) it was 700 nM; in experiment [4] (setting [9]), 1500 nM; in experiment [5] (setting [10]), 700 nM.

`CCCCCCCCCCCCCCc1ccc(NS(=O)(=O)N[C@H](CC(=O)O)C[N+](C)(C)C)cc1` [Example S90, (R)-3-(N-(4-tetradecylphenyl)sulfamoylamino)-4-(trimethylammonio)-butanoate]: the GI50 in experiment [1] (setting [6]) is 3100 nM; in experiment [2] (setting [7]) it was 6600 nM; in experiment [3] (setting [8]), 4000 nM; in experiment [4] (setting [9]), 1300 nM; in experiment [5] (setting [10]), 1100 nM.

Turning to `CCCCCCCCCCCCc1ccc(NS(=O)(=O)N[C@H](CC(=O)O)C[N+](C)(C)C)cc1` [Example S89, (R)-3-(N-(4-dodecylphenyl)sulfamoylamino)-4-(trimethylammonio)-butanoate], the GI50 worked out at 2300 nM in experiment [1] (setting [6]); 4100 nM in experiment [2] (setting [7]); 4200 nM in experiment [3] (setting [8]); 1600 nM in experiment [4] (setting [9]); 1400 nM in experiment [5] (setting [10]).

For the origin of these results see patent US8410150B2, “Inhibitors of carnitine palmitoyltransferase and treating cancer” (University Health Network, priority 2007, dated 2013).
